According to patent US9895342B2, “Cannabinoids for use in the treatment of neuropathic pain” (GW Pharma Limited, priority 2011, dated 2018):

Key:
[1] = system: patients; conditions: cited from earlier work
[2] = system: SNI mice; assay: Mechanical allodynia (Dynamic Plantar Aesthesiometer, paw withdrawal threshold) in spared nerve injury mice; type: in vivo; conditions: for MECHANICAL WITHDRAWAL THRESHOLD: SNI mice; for overall efficacy, mechanical withdrawal: both of the doses tested (2.5 and 5 mg/kg)
Procedure: (§1) Peripheral neuropathic pain is produced by multiple etiological factors that initiate a number of diverse mechanisms at different sites and in different disease states. Spared nerve injury (SNI) consists of partial ligation and transaction of the sciatic nerve which evolves in neuropathic pain whose typical manifestations are represented by thermal hyperalgesia and tactile allodynia.
(§2) Chronic pain symptoms are measured through changes in thermoceptive responses (which is indicative of thermal hyperalgesia) using Plantar Test Apparatus (Ugo Basile, Varese, Italy) and in mechanical paw withdrawal threshold (which is indicative of mechanical allodynia) by a Dynamic Plantar Aesthesiometer (Ugo Basile, Varese, Italy). Nociceptive responses were measured before and after surgery in groups of mice differently treated (vehicle or drugs different combinations).
(§3) The cannabinoids tested were CBG, CBC, CBDV, and THCV. […] The cannabinoids were prepared from whole plant extracts of cannabis plants which had been purified. The cannabinoids were dissolved in ringer/0.5% dimethyl sulfoxide (DMSO), for intraperitoneal (i.p.) administration.
(§4) Male CD-1 mice (35-40 g) were housed, 3 per cage, under controlled illumination (12:12 h light:dark cycle; light on 06.00 h) and environmental conditions (room temperature 20-22° C., humidity 55-60%) for at least 1 week before the commencement of experiments. Mouse chow and tap water were available ad libitum. The experimental procedures were approved by the Ethic Committee of the Second University of Naples. Animal care was in compliance with the IASP and European Community (E.C. L358/1 18/12/86) guidelines on the use and protection of animals in experimental research. All efforts were made to minimize animal suffering and to reduce the number of animals used.
(§5) Behavioural testing was performed before surgery to establish a baseline for comparison with post-surgical values. Mononeuropathy was induced according to the method of Bourquin and Decosterd (2006).
(§6) Mice were anaesthetized with sodium pentobarbital (60 mg/kg i.p.). The right hindlimb was immobilized in a lateral position and slightly elevated. Incision was made at mid-thigh level using the femur as a landmark. The sciatic nerve was exposed at mid-thigh level distal to the trifurcation and freed of connective tissue; the three peripheral branches (sural, common peroneal, and tibial nerves) of the sciatic nerve were exposed without stretching nerve structures.
(§7) Both tibial and common peroneal nerves were ligated and transacted together. A micro-surgical forceps with curved tips was delicately placed below the tibial and common peroneal nerves to slide the thread (5.0 silk, Ethicon, Johnson, and Johnson Intl, Brussels, Belgium) around the nerves. A tight ligation of both nerves was performed. The sural nerve was carefully preserved by avoiding any nerve stretch or nerve contact with surgical tools. Muscle and skin were closed in two distinct layers with silk 5.0 sutures.
(§8) Intense, reproducible and long-lasting thermal hyperalgesia and mechanical allodynia-like behaviors are measurable in the non-injured sural nerve skin territory. The SNI model offers the advantage of a distinct anatomical distribution with an absence of co-mingling of injured and non-injured nerve fibers distal to the lesion such as the injured and non-injured nerves and territories can be readily identified and manipulated for further analysis (i.e. behavioral assessment).
(§9) The sham procedure consisted of the same surgery without ligation and transection of the nerves.
(§10) The groups of mice were divided as follows, each cannabinoid tested has its own group of mice:
(§11) The cannabinoids were dosed daily for 14 days. Doses for all cannabinoids tested were: 2.5 and 5.0 mg/Kg. Vehicle solution was 0.5% DMSO in ringer solution.
Mechanical allodynia was measured by using Dynamic Plantar Anesthesiometer (Ugo Basile, Varese, Italy). […]

[3] = system: SNI mice; assay: Thermal hyperalgesia (Plantar Test Apparatus, paw withdrawal latency) in spared nerve injury mice; type: in vivo; conditions: for dose-dependence of effect on thermal withdrawal latency: 2.5 vs 5 mg/kg
Procedure: as §1, §2, §3, §4, §5, §6, §7, §8, §9, §10, §11
Thermal hyperalgesia was evaluated by using a Plantar Test Apparatus (Ugo Basile, Varese, Italy). […]

[4] = system: chronic constriction injury of the rat sciatic nerve; conditions: administered as a purified compound; Costa et al., 2004; cited from earlier work
[5] = SNI mice, 2.5 mg/kg i.p. daily, DAY 3
[6] = SNI mice, 2.5 mg/kg i.p. daily, DAY 7
[7] = SNI mice, 2.5 mg/kg i.p. daily, DAY 14
[8] = SNI mice, 5 mg/kg i.p. daily, DAY 3
[9] = SNI mice, 5 mg/kg i.p. daily, DAY 7
[10] = SNI mice, 5 mg/kg i.p. daily, DAY 14

| Structure (SMILES) | MECHANICAL WITHDRAWAL THRESHOLD ([2]; 2.5 mg/kg i.p. daily, DAY 3) [g] | MECHANICAL WITHDRAWAL THRESHOLD ([2]; 2.5 mg/kg i.p. daily, DAY 7) [g] | MECHANICAL WITHDRAWAL THRESHOLD ([2]; 2.5 mg/kg i.p. daily, DAY 14) [g] | MECHANICAL WITHDRAWAL THRESHOLD ([2]; 5 mg/kg i.p. daily, DAY 3) [g] | MECHANICAL WITHDRAWAL THRESHOLD ([2]; 5 mg/kg i.p. daily, DAY 7) [g] | MECHANICAL WITHDRAWAL THRESHOLD ([2]; 5 mg/kg i.p. daily, DAY 14) [g] | overall efficacy, mechanical withdrawal [2] | overall efficacy, thermal withdrawal ([3]; 2.5 mg/kg) | dose-dependence of effect on thermal withdrawal latency [3] | THERMAL WITHDRAWAL LATENCY [3, 5] [s] | THERMAL WITHDRAWAL LATENCY [3, 6] [s] | THERMAL WITHDRAWAL LATENCY [3, 7] [s] | THERMAL WITHDRAWAL LATENCY [3, 8] [s] | THERMAL WITHDRAWAL LATENCY [3, 9] [s] | THERMAL WITHDRAWAL LATENCY [3, 10] [s] | further results |
| --- | --- | --- | --- | --- | --- | --- | --- | --- | --- | --- | --- | --- | --- | --- | --- | --- |
| NC(=O)N1c2ccccc2C=Cc2ccccc21 [carbamezepine] | – | – | – | – | – | – | – | – | – | – | – | – | – | – | – | decrease in white blood cell count ([1]; in 7% of patients): 25%; increase in the risk of blood dyscrasias ([1]; post-marketing studies, patients taking carbamezepine): five- to eight-fold |
| C=C(C)[C@@H]1CCC(C)=C[C@H]1c1c(O)cc(CCCCC)cc1O [CBD, cannabidiol, reference compound] | 2.2 | 4.8 | 5.2 | 5.0 | 8.6 | 5.3 | relatively ineffective | relatively ineffective | do not appear to be dose-dependent | 3.5 | 4.2 | 5.6 | 5.8 | 7.0 | 7.5 | mechanical withdrawal, course over time ([2]; 5.0 mg/kg, day 7 to day 14): large increase at day 7; however this latency decreased again at the 14 day time point; THERMAL WITHDRAWAL LATENCY ([3]; 5.0 mg/kg, day 3): able to increase the amount of time before the animal withdrew its paw; relief of neuropathic pain [4]: can partially relieve neuropathic pain |
| C=C(C)[C@@H]1CCC(C)=C[C@H]1c1c(O)cc(CCC)cc1O [CBDV, cannabidivarin] | 6.8 | 7.0 | 7.8 | 6.7 | 6.6 | 7.7 | highest mechanical withdrawal latency of all the cannabinoids | good efficacy | dose-dependent effects were observed | 3.8 | 6.4 | 6.5 | 4.0 | 7.2 | 11.0 | mechanical withdrawal latency ([2]; 2.5 mg/kg, day 3): dramatic increase; ability to treat neuropathic pain compared with CBD ([2]; mechanical withdrawal data): superior to CBD; overall efficacy, thermal withdrawal ([3]; 5.0 mg/kg): most effective; THERMAL WITHDRAWAL LATENCY ([3]; 5.0 mg/kg, 14 days): large increase; ability to treat neuropathic pain compared with CBD ([3]; thermal withdrawal data): superior to CBD |
